Source: US20110104055A1, “SUBSTITUTED N-ARYL BENZAMIDES AND RELATED COMPOUNDS FOR TREATMENT OF AMYLOID DISEASES AND SYNUCLEINOPATHIES” (priority 2002, published 2011)

Tests used:
Aβ 1-42 fibrils [1] = molecular target: T1, Aβ 1-42 fibrils (Homo sapiens, UniProt P05067); assay: Thioflavin T fluorometry, disruption of pre-formed Aβ 1-42 fibrils (Example 7); type: biochemical; conditions: for % inhibition of Aβ (Thioflavin T fluorometry): 25 μM pre-fibrillized Aβ 1-42, 37° C., 3 days (Table 3)
T1 construct: purchased Bachem Inc
Description: In this assay Thioflavin T binds specifically to fibrillar amyloid, and this binding produces a fluorescence enhancement at 485 nm that is directly proportional to the amount of amyloid fibrils formed. The higher the fluorescence, the greater the amount of amyloid fibrils formed (Naki et al., Lab. Invest. 65:104-110, 1991; Levine III, Protein Sci. 2:404-410, 1993; Amyloid: Int. J. Exp. Clin. Invest. 2:1-6, 1995).
Following 3 days of co-incubation, 50 μl of each incubation mixture was transferred into a 96-well microtiter plate containing 150 μl of distilled water and 50 μl of a Thioflavin T solution (i.e. 500 mM Thioflavin T in 250 mM phosphate buffer, pH 6.8). The fluorescence was read at 485 nm (444 nm excitation wavelength) using an ELISA plate fluorometer after subtraction with buffer alone or compound alone, as blank).

Aβ 1-42 fibrils [2] = molecular target: T1, Aβ 1-42 fibrils; assay: Congo red binding assay, Aβ 1-42 fibrils (Example 11); type: biochemical; conditions: 3-day incubation
Description: In the Congo red binding assay, the ability of a test compound to alter amyloid (in this case, Aβ) binding to Congo red is quantified. In this assay, Aβ 1-42 and test compounds were incubated for 3 days and then vacuum filtered through a 0.2 μm filter. The amount of Aβ 1-42 retained in the filter was then quantitated following staining of the filter with Congo red. After appropriate washing of the filter, any lowering of the Congo red color on the filter in the presence of the test compound (compared to the Congo red staining of the amyloid protein in the absence of the test compound) was indicative of the test compound's ability to diminish/alter the amount of aggregated and congophilic Aβ.
In one study, the ability of Aβ fibrils to bind Congo red in the absence or presence of increasing amounts of the compounds or EDTA (at Aβ:test compound weight ratios of 1:1, 1:0.1, 1:0.01 or 1:0.001) was determined.

[3] = Aβ:test compound wt/wt ratio 1:0.001
[4] = Aβ:test compound wt/wt ratio 1:0.01
[5] = Aβ:test compound wt/wt ratio 1:0.1
[6] = Aβ:test compound wt/wt ratio 1:1

T1 sequence (P05067 672-713): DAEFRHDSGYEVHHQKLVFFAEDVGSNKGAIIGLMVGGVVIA

## O=C(O)CN(CCN(CC(=O)O)CC(=O)O)CC(=O)O [EDTA]
Aβ 1-42 fibrils [1]; [3]
  % inhibition of Aβ (Thioflavin T fluorometry): 10.3 +/− 10.81%
Aβ 1-42 fibrils [1]; [4]
  % inhibition of Aβ (Thioflavin T fluorometry): 0.0 +/− 2.26%
Aβ 1-42 fibrils [1]; [5]
  % inhibition of Aβ (Thioflavin T fluorometry): 0.0 +/− 1.18%
Aβ 1-42 fibrils [1]; [6]
  % inhibition of Aβ (Thioflavin T fluorometry): 5.0 +/− 11.39%
Aβ 1-42 fibrils [1]; Thioflavin T fluorometry, all concentrations tested, 3 days
  disruption/disassembly of preformed Aβ 1-42 fibrils, in words: no significant inhibition/disruption
Aβ 1-42 fibrils [2]; [3]
  % Inhibition Aβ (result ± S.D.), Congo red binding: 1.2 ± 7.95%
Aβ 1-42 fibrils [2]; [4]
  % Inhibition Aβ (result ± S.D.), Congo red binding: 8.4 ± 4.00%
Aβ 1-42 fibrils [2]; [5]
  % Inhibition Aβ (result ± S.D.), Congo red binding: 0.0 ± 6.83%
Aβ 1-42 fibrils [2]; [6]
  % Inhibition Aβ (result ± S.D.), Congo red binding: 8.4 ± 2.74%
Aβ 1-42 fibrils [2]; all concentrations tested
  inhibition of Aβ 1-42 fibril binding to Congo red, in words: no significant inhibition
